{"source": "patent US11078189B2", "about": "“Pharmaceutical compounds” (REVIRAL LIMITED, priority 2017, dated 2021)", "key": {"[1]": {"target": "T1, CYP1A2 (Homo sapiens, UniProt P05177)", "T1 construct": "from tissue; host or cells: human liver microsomes", "T1 sequence (P05177 1-516)": "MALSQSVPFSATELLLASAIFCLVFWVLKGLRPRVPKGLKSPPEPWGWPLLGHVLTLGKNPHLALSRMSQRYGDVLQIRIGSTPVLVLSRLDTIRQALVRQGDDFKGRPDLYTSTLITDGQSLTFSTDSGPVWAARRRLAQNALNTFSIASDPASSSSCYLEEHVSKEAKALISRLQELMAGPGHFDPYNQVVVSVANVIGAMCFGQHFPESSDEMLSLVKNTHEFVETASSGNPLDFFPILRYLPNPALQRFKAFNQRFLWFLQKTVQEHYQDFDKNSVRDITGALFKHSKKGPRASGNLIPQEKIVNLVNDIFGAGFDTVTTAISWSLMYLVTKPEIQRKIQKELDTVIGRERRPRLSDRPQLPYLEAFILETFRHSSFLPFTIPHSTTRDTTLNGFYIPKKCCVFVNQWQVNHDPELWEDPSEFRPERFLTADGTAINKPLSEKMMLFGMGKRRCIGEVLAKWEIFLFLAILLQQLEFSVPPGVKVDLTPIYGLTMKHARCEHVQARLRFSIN", "experiment": "Cytochrome P450 inhibition CYP1A2", "format": "in vitro ADME", "details": "human liver microsomes", "method": "(§1) Test compound (0.1, 0.25, 1, 2.5, 10, 25 μM in DMSO; final DMSO concentration 0.3%) was incubated with human liver microsomes (0.25 mg/mL) and NADPH (1 mM) in the presence of a cytochrome P450 isoform-specific probe substrate. The metabolites were monitored by LC-MS/MS and a decrease in the formation of the metabolite compared to the vehicle control used to calculate an IC50 value (test compound concentration which produces 50% inhibition). A cytochrome P450 isoform-specific selective inhibitor was screened alongside the test compounds as a positive control."}, "[2]": {"experiment": "In vivo pharmacokinetics in the dog", "set-up": "species or system Beagle dogs", "details": "Beagle, plasma, 3 mg/kg PO", "method": "The pharmacokinetics of compounds of the invention were studied in vivo in the dog at doses of 3 mg/kg (PO).\nBeagle dogs (n=3) were treated with experimental compounds via oral administration (3 mg/kg). Oral administration was performed by gavage at a dose of 3 mg/kg at a concentration of 0.6 mg/mL in […], 30% PEG 400 & 65% (2-hydroxypropyl)-β-cyclodextrin solution (20% w/v aq.). Serial blood samples were collected at 0.08, 0.25, 0.5, 1, 2, 4, 6, 8, 12 and 24 hours post dosing of compound. […] Serial plasma samples were taken at the defined time points and stored immediately at −80° C.\nFollowing protein precipitation with acetonitrile, samples were analysed with tandem. liquid chromatography/mass spectrometry using electrospray ionisation. A full matrix curve with internal standards was employed and PK parameters were calculated."}, "[3]": {"target": "T2, CYP2C9 (Homo sapiens, UniProt P11712)", "T2 construct": "from tissue; host or cells: human liver microsomes", "T2 sequence (P11712 whole entry)": "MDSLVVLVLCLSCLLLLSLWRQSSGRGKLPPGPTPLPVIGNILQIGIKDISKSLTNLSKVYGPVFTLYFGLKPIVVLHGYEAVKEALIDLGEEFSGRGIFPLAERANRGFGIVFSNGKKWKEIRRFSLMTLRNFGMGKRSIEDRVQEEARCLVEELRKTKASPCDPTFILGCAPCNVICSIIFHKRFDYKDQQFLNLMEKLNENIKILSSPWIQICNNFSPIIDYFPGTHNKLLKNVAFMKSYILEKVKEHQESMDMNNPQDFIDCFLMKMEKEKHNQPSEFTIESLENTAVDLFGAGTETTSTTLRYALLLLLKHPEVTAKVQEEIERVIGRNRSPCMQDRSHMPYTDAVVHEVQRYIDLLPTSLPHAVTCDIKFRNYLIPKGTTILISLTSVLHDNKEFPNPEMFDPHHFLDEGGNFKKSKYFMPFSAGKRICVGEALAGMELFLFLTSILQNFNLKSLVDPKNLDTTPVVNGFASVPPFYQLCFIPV", "experiment": "Cytochrome P450 inhibition CYP2C9", "format": "in vitro ADME", "details": "human liver microsomes", "method": "as §1"}, "[4]": {"target": "T3, CYP2C8 (Homo sapiens, UniProt P10632)", "T3 construct": "from tissue; host or cells: human liver microsomes", "T3 sequence (P10632 1-490)": "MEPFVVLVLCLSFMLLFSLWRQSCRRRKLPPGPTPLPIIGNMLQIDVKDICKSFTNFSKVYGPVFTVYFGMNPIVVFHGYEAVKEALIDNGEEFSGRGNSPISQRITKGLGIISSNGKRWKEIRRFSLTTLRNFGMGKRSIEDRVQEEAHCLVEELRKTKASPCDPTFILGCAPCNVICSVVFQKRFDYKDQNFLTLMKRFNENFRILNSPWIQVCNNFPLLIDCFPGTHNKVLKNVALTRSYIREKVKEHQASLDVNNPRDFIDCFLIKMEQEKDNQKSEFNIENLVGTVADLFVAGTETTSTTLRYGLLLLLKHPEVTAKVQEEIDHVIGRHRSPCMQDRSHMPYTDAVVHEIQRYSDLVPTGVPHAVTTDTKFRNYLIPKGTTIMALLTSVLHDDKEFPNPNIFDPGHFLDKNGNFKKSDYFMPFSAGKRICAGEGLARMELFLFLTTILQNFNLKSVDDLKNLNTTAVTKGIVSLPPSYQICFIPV", "experiment": "Cytochrome P450 inhibition CYP2C8", "format": "in vitro ADME", "details": "human liver microsomes", "method": "as §1"}, "[5]": {"target": "T4, CYP3A4 (Homo sapiens, UniProt P08684)", "T4 construct": "from tissue; host or cells: human liver microsomes", "T4 sequence (P08684 whole entry)": "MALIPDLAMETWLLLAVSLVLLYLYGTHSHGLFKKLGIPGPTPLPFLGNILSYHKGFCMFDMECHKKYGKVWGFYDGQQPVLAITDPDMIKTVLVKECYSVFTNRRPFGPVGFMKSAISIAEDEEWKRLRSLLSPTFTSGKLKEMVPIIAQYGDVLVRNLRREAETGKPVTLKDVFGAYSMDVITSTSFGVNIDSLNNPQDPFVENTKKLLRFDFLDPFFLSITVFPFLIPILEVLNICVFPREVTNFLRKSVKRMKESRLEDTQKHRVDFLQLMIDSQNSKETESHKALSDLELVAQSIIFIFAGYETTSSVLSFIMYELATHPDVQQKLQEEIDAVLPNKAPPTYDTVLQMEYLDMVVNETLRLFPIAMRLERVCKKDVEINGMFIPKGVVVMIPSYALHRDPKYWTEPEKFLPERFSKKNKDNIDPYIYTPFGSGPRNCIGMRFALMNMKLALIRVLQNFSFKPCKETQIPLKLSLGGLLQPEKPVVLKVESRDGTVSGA", "experiment": "Cytochrome P450 inhibition CYP3A4", "format": "in vitro ADME", "details": "human liver microsomes", "method": "as §1"}, "[6]": {"target": "T5, CYP2D6 (Homo sapiens, UniProt P10635)", "T5 construct": "from tissue; host or cells: human liver microsomes", "T5 sequence (P10635 whole entry)": "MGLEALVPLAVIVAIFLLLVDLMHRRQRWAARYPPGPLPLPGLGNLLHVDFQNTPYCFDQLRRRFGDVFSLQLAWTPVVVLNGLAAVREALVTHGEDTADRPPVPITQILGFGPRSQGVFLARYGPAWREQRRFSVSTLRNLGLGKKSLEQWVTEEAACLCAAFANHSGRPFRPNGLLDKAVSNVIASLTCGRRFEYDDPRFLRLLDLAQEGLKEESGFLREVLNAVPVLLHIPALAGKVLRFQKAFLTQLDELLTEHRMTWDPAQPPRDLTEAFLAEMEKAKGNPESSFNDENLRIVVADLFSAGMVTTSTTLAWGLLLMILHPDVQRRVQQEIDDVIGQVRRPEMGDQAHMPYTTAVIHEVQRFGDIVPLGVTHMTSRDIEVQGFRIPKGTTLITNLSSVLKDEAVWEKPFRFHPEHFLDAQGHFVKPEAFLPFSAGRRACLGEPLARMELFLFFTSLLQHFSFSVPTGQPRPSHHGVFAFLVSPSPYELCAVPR", "experiment": "Cytochrome P450 inhibition CYP2D6", "format": "in vitro ADME", "details": "human liver microsomes", "method": "as §1"}}, "note": "Where two headings read alike, the source gives them in different places."}
{"smiles": "CS(=O)(=O)N1CCC(n2c(CN3C(=O)C4(CC4)c4ccc(F)cc43)nc3cc(Cl)ccc32)CC1", "note": "[Compound 33, 1′-{[5-Chloro-1-(1-methanesulfonylpiperidin-4-yl)-1H-1,3-benzodiazol-2-yl]methyl}-6′-fluoro-1′,2′-dihydrospiro[cyclopropane-1,3′-indole]-2′-one]", "values": [{"measurement": "IC50", "setting": "[1]", "value": "> 25", "unit": "µM"}, {"measurement": "AUC", "setting": "[2]", "value": 3870, "unit": "ng·h/mL"}, {"measurement": "AUC(0-inf)", "setting": "[2]", "value": 4280, "unit": "ng·h/mL"}, {"measurement": "AUC(0-t)", "setting": "[2]", "value": 3870, "unit": "ng·h/mL"}, {"measurement": "Cmax", "setting": "[2]", "value": 535, "unit": "ng/mL"}, {"measurement": "Tmax", "setting": "[2]", "value": 0.67, "unit": "h"}, {"measurement": "half-life", "setting": "[2]", "value": 7.24, "unit": "h"}, {"measurement": "IC50", "setting": "[3]", "value": "> 25", "unit": "µM"}, {"measurement": "IC50", "setting": "[4]", "value": "> 25", "unit": "µM"}, {"measurement": "IC50", "setting": "[5]; substrate = midazolam, read-out: Cytochrome P450 inhibition IC50 CYP3A4 (midazolam)", "value": 0.674, "unit": "µM"}, {"measurement": "IC50", "setting": "[5]; substrate = testosterone, read-out: Cytochrome P450 inhibition IC50 CYP3A4 (testosterone)", "value": 3.94, "unit": "µM"}, {"measurement": "IC50", "setting": "[6]", "value": "> 25", "unit": "µM"}]}
